From US20240207240A1, “Method for Improving or Treating Cognitive Dysfunction Complicating HIV-associated Cryptococcal Meningitis with Lenalidomide” (The First Affiliated Hospital Zhejiang University School of …, priority 2022, published 2024)
Values joined by “and” are separate entries in the source; they are usually repeats but may differ in a detail not shown here. Identical values can stand only once. Like-named read-outs stand apart in the source and are kept apart here.

Legend:
[1] = withdrawal for adverse event in the lenalidomide treatment cohort; format: in vivo, human; settings: of 8 patients with cognitive dysfunction at enrollment
Protocol: Screening process: 14 patients were included in the lenalidomide treatment cohort based on the inclusion and exclusion criteria: 8 had cognitive dysfunction at the time of enrollment. Among them, one patient withdrew from the study due to skin allergy, so only 7 patients were followed up for 24 weeks.
Lenalidomide Treatment: Patients were treated with six cycles of lenalidomide (one cycle: […] for 3 weeks, followed by 1 week ceased lenalidomide) when they were enrolled. The drug was stopped at the end of 6 cycles.

[2] = system: patients with cognitive dysfunction caused by HIV-associated CM-IRIS; experiment: overall cognitive status by MoCA and IHDS scales; format: in vivo, human; settings: of 7 patients treated with lenalidomide
Protocol: FIGS. 2A and 2B show results of treating patients with HIV-associated CM who still develop cognitive dysfunction after completing the anti-cryptococcal induction treatment. The patients are treated with lenalidomide. In the treatment, lenalidomide is administered at 25 mg/day for immuno-modulation for a total of 6 treatment cycles, with each cycle including 21 days of lenalidomide administration followed by 7 days of no lenalidomide. The patients are further assigned to a cognitive improvement group and a cognitive non-improvement group. […] FIG. 2A compares CSF biochemistry in the cognitive improvement group and cognitive non-improvement group before and after treatment.
Definition of cognitive dysfunction: The Chinese version of the Montreal Cognitive Assessment (MoCA) shown in Table 1, International HIV Dementia Scale (IHDS) shown in Table 2, and Center for Epidemiological Research Depression Scale (CES-D) are used to assess patients' cognitive status. They all use Chinese questionnaires that have been validated for the evaluation of Chinese patients. The MoCA tests eight major neurocognitive domains, including short-term memory recall (no score), visuospatial ability, naming, attention, language, conceptual thinking, working memory, and orientation of time and place. […]

[3] = cited from earlier work
TNF-α = settings: cited from earlier work
[4] = system: patients with cognitive dysfunction caused by HIV-associated CM-IRIS; format: in vivo, human; settings: for ΔIHDS: week 24 - week 0, median
[5] = in vivo; cited from earlier work

SMILES: Nc1cccc2c1CN(C1CCC(=O)NC1=O)C2=O (centres unmarked) [lenalidomide]
- patients withdrawn from the study due to skin allergy [1]: one
- patients whose cognitive status returned to normal [2]: 4 patients
- bioavailability [3]: high
- inhibitory effect on TNF-α relative to thalidomide (TNF-α): 2000 times
- median IHDS score ([4]; W24, after 6 cycles lenalidomide, 7 patients, baseline 9.0 (2.5-10.5), P=0.028): 11.0 (10.0-12.0)
- recall of the four items in the IHDS ([4]; W24, baseline 1.5 (1.0-3.5), P=0.042): 4.0 (2.0-4.0)
- IHDS-W 24 ([4]; individual Patients 1-4 (cognitive improvement group)): 10 scores (2×) and 11 scores and 12 scores
- IHDS-W 24 ([4]; individual Patients 5-7 (cognitive non-improvement group)): 12 scores (2×) and 10 scores
- ΔIHDS ([4]; CI group): 5.25 scores
- ΔIHDS ([4]; CNI group): 1.5 scores
- side effects [5]: milder than those of thalidomide
